Earlier results as cited in patent US20250312278A1, “BRIVARACETAM PHARMACEUTICAL COMPOSITION, PREPARATION METHOD THEREFOR AND USE THEREOF” (SHANGHAI BOCIMED PHARMACEUTICAL CO., LTD., priority 2020, published 2025).
In brackets after ≈: the same amount, converted by molar mass. Where two headings read alike, the source gives them in different places.

What was measured:
[1] = in vivo

CCC[C@@H]1CC(=O)N(C(CC)C(N)=O)C1 (stereo partly drawn) [Brivaracetam, (2S)-2-[(4R)-2-oxo-4-propyltetrahydron-1H-pyrro-1-yl] butanamide]
terminal half-life period [1]: 9 h
solubility (buffer solution with a pH of 4.5): 0.85 g/mL (≈ 4000 mM)
solubility (buffer solution with a pH of 7.4): 0.84 g/mL (≈ 3960 mM)
solubility (hydrochloric acid solution with a pH of 1.2): 0.85 g/mL (≈ 4000 mM)
solubility (water): 0.7 g/mL (≈ 3300 mM)
